Columns and labels:
Kidney Fibroblast = assay: MTT proliferation assay, mouse kidney fibroblast; format: cell-based
Protocol: (§1) Cell proliferation was measured by MTT assay. DMEM with 10% fetal serum was used as cell culture medium. The cells were prepared in suspension (1×10^5/ml), and 100 μL of the suspension was transferred to each well of a 96 wells plate. Once the cells were attached to the plastic, the culture was changed to serum free medium and continued for another 24 hours. The serum free medium was aspirated, and various concentrations of 1-(3′-fluorophenyl)-5-methyl-2(1H)-pyridone (AKF-PD) 1-(3′-bromophenyl)-5-methyl-2(1H)-pyridone (AKF-BR) or PIRFENIDONE (PFD) in 10% serum medium were added into each well with 5 replicates for each concentration. The cells were stained with MTT (10 μL per well) at 24, 48, and 72 hours post drug treatment. After 4 hrs of incubation, the medium with MTT was aspirated from each well. One hundred μL MTT solvent was added to each well for 15 min. The dissolved MTT was then measured with a plate reader at 570 nm.

[1] = Acute oral toxicity in Kun Ming mice, LD50 by Bliss method; details: both sexes, Kun Ming (KM), mouse, in vivo, po
Protocol: Male and female Kun Ming (KM) mice weighing between 18 g-22 g were acquired from the animal facility of Hsiang-Ya Medical College, the Central South University. Fifty Kun Ming mice were randomly assigned into 5 groups with 5 male and 5 female mice for each group. The animals went through fasting with a normal water supply before starting drug treatment (either AKF-PD or PIRFENIDONE). The drug was administrated orally by gavage. The volume of liquid drug was 20 ml/kg body weight. The range of dosage for AKF-PD administrated was from 1071 mg/kg to 6000 mg/kg. The dosage difference between two adjacent doses was 1:0.65 (a dose vs the next lower dose). All animals were maintained under a regular condition. Acute toxic reaction and death within 14 days of post drug treatment were recorded. Autopsy was performed on all dead animals and visual examination was performed on all organs.
LD50 was calculated according to Bliss method. […] The results of Table 15 are very close to those reported in the literature: 997.7 mg/kg (U.S. Pat. No. 5,310,562) and 1112 mg/kg(Pharmaceutical Care and Research 5:4823(2005)).

[2] = tested on: Rat Pulmonary Fibroblasts; assay: MTT proliferation assay, rat pulmonary fibroblasts; format: cell-based
Protocol: as §1, with “and incubated” for “and continued”, “hours. Then, the” for “hours. The”, “(AKF-PD) or 1-(3′-bromophenyl)-5-Methyl-2(1H)-Pyridone” for “(AKF-PD) 1-(3′-bromophenyl)-5-methyl-2(1H)-pyridone (AKF-BR)”, “24, or 48” for “24, 48, and 72”, “15 min, and the” for “15 min. The”, “was” for “was then”

[3] = tested on: Human Skin Scar Forming Fibroblasts; assay: MTT proliferation assay, human skin scar forming fibroblasts; format: cell-based
Protocol: (§2) In the following examples, myocardiac fibroblasts, skin scar forming fibroblast and human peritoneal mesothelial cells are primary cultures prepared according to common procedure. Other cells are commercially purchased. 1-(3-fluorophenyl)-5-methyl-2(1H)-pyridone (AKF-PD) is prepared as a suspension in 5% carboxymethylcellulose.
(§3) Cell proliferation was measured by MTT assay. DMEM with 10% fetal serum was used as cell culture medium. The cells were prepared in suspension (1×10^5/ml), and 100 μL of the suspension was transferred to each well of a 96 wells plate. Once the cells were attached to the plastic, the culture was changed to serum free medium and incubated for another 24 hours. Then, the serum free medium was aspirated, and various concentrations of 1-(3′-fluorophenyl)-5-methyl-2(1H)-pyridone (AKF-PD) or PIRFENIDONE (PFD) in 10% serum medium were added into each well with 5 replicates for each concentration. The cells were stained with MTT (10 μL per well) at 12, 24, or 48 hours post drug treatment. After 4 hrs of incubation, the medium with MTT was aspirated from each well. One hundred μL MTT solvent was added to each well for 15 min, and the dissolved MTT was measured with a plate reader at 570 nm.

[4] = tested on: Rat Myocardiac Fibroblasts; assay: MTT proliferation assay, rat myocardiac fibroblasts; format: cell-based
Protocol: as §2, §3

[5] = tested on: SD rat, renal interstitial fibrosis induced by surgical ligation of single side ureter; assay: Rat ureter ligation model of renal interstitial fibrosis, AKF-PD vs PFD (Example 12); format: in vivo; details: ureter-ligated rats; PFD 500 mg/kg/d, AKF-PD 500 mg/kg/d by gavage; 14 days post surgery
Protocol: Anti-fibrotic effect of AKF-PD was tested on a SD rat model for renal interstitial fibrosis induced by surgical ligation of single side ureter. Male SD rats (180 g˜220 g) were randomly divided into disease model group, PFD (500 mg/kg/d) group and AKF-PD (500 mg/kg/d) group. […] The respective drugs were administrated by gavage to rats in the groups of PFD and AKF-PD from one day prior to the procedure to 14 days post surgical procedure. Normal saline was administrated in a similar fashion to the rats in the groups of disease model. The animals were sacrificed 14 days after surgical procedure and their kidney were removed for pathological (HE staining) examination.

## Cc1ccc(=O)n(-c2cccc(F)c2)c1 [AKF-PD, 1-(3′-fluorophenyl)-5-methyl-2(1H)-pyridone]
Kidney Fibroblast
  inhibition of proliferation of kidney fibroblast: capable of inhibiting the proliferation of kidney fibroblast
Kidney Fibroblast; 100 μg/ml, 24 h
  Optical Density at 570 nm: 0.5907 ± 0.0199
Kidney Fibroblast; 100 μg/ml, 48 h
  Optical Density at 570 nm: 0.5850 ± 0.0134
Kidney Fibroblast; 100 μg/ml, 72 h
  Optical Density at 570 nm: 0.5080 ± 0.0145
Kidney Fibroblast; 500 μg/ml, 24 h
  Optical Density at 570 nm: 0.5799 ± 0.1086
Kidney Fibroblast; 500 μg/ml, 48 h
  Optical Density at 570 nm: 0.5185 ± 0.0331
Kidney Fibroblast; 500 μg/ml, 72 h
  Optical Density at 570 nm: 0.4314 ± 0.0264
Kidney Fibroblast; 1000 μg/ml, 24 h
  Optical Density at 570 nm: 0.5638 ± 0.0142
Kidney Fibroblast; 1000 μg/ml, 48 h
  Optical Density at 570 nm: 0.4298 ± 0.0258
Kidney Fibroblast; 1000 μg/ml, 72 h
  Optical Density at 570 nm: 0.3511 ± 0.0215
Kidney Fibroblast; kidney fibroblast
  order of inhibitory effect: AKF-PD>AKF-BR>pirfenidone
[1]; LD50
  LD50 at 14 days: 2980 mg/kg
[1]; LD50 95% confidence limit
  LD50 at 14 days: 2400 to 3700 mg/kg
[2]
  suppression of proliferation of rat pulmonary fibroblasts: could suppress proliferation of rat pulmonary fibroblasts
[2]; 100 μg/ml, 24 h
  Optical Density at 570 nm: 0.1467 ± 0.0138
[2]; 100 μg/ml, 48 h
  Optical Density at 570 nm: 0.1369 ± 0.0115
[2]; 500 μg/ml, 24 h
  Optical Density at 570 nm: 0.1258 ± 0.0119
[2]; 500 μg/ml, 48 h
  Optical Density at 570 nm: 0.1214 ± 0.0234
[2]; 1000 μg/ml, 24 h
  Optical Density at 570 nm: 0.1130 ± 0.0163
[2]; 1000 μg/ml, 48 h
  Optical Density at 570 nm: 0.1119 ± 0.0285
[2]; rat pulmonary fibroblasts
  order of inhibitory effect: AKF-PD>AKF-BR>pirfenidone
[3]; 100 μg/ml, 12 h
  Optical Density at 570 nm: 0.192 ± 0.010
[3]; 100 μg/ml, 24 h
  Optical Density at 570 nm: 0.245 ± 0.002
[3]; 100 μg/ml, 48 h
  Optical Density at 570 nm: 0.366 ± 0.006
[3]; 500 μg/ml, 12 h
  Optical Density at 570 nm: 0.192 ± 0.006
[3]; 500 μg/ml, 24 h
  Optical Density at 570 nm: 0.238 ± 0.004
[3]; 500 μg/ml, 48 h
  Optical Density at 570 nm: 0.345 ± 0.007
[3]; 1000 μg/ml, 12 h
  Optical Density at 570 nm: 0.192 ± 0.009
[3]; 1000 μg/ml, 24 h
  Optical Density at 570 nm: 0.221 ± 0.004
[3]; 1000 μg/ml, 48 h
  Optical Density at 570 nm: 0.323 ± 0.009
[3]; 2500 μg/ml, 12 h
  Optical Density at 570 nm: 0.190 ± 0.002
[3]; 2500 μg/ml, 24 h
  Optical Density at 570 nm: 0.198 ± 0.008
[3]; 2500 μg/ml, 48 h
  Optical Density at 570 nm: 0.267 ± 0.001
[3]; human skin fibroblasts
  anti-proliferative potency compared with PIRFENIDONE: more potent anti-proliferative agent than PIRFENIDONE
[4]; 100 μg/ml, 12 h
  Optical Density at 570 nm: 0.328 ± 0.010
[4]; 100 μg/ml, 24 h
  Optical Density at 570 nm: 0.426 ± 0.006
[4]; 100 μg/ml, 48 h
  Optical Density at 570 nm: 0.620 ± 0.018
[4]; 500 μg/ml, 12 h
  Optical Density at 570 nm: 0.326 ± 0.003
[4]; 500 μg/ml, 24 h
  Optical Density at 570 nm: 0.408 ± 0.009
[4]; 500 μg/ml, 48 h
  Optical Density at 570 nm: 0.580 ± 0.014
[4]; 1000 μg/ml, 12 h
  Optical Density at 570 nm: 0.332 ± 0.006
[4]; 1000 μg/ml, 24 h
  Optical Density at 570 nm: 0.392 ± 0.008
[4]; 1000 μg/ml, 48 h
  Optical Density at 570 nm: 0.538 ± 0.009
[4]; 2500 μg/ml, 12 h
  Optical Density at 570 nm: 0.325 ± 0.008
[4]; 2500 μg/ml, 24 h
  Optical Density at 570 nm: 0.377 ± 0.013
[4]; 2500 μg/ml, 48 h
  Optical Density at 570 nm: 0.514 ± 0.005
[4]; rat myocardiac fibroblasts
  anti-proliferative potency compared with PIRFENIDONE: more potent anti-proliferative agent than PIRFENIDONE
[5]
  Histological Score for Interstitial Compartment: 7.11 ± 1.38

— patent US20090005424A9, “Composition and Method for Treating Fibrotic Diseases” (priority 2005, published 2009)
